Test results: ChEMBL document CHEMBL2380212, “Synthesis, single crystal and antitumor activities of benzimidazole-quinazoline hybrids” (Bioorg Med Chem Lett, 2013)

How the values were obtained:
[1] = tested on: PC-3; test: Cytotoxicity against human PC3 cells at 10 uM after 48 hrs by SRB assay; assay type: functional; settings: PC-3, 48 h, read-out: GI
[2] = tested on: M14; test: Cytotoxicity against human M14 cells at 10 uM after 48 hrs by SRB assay; assay type: functional; settings: M14, 48 h, read-out: GI
[3] = tested on: SNB-19; test: Cytotoxicity against human SNB19 cells at 10 uM after 48 hrs by SRB assay; assay type: functional; settings: SNB-19, 48 h, read-out: GI
[4] = tested on: HL-60(TB); test: Cytotoxicity against human HL-60(TB) cells at 10 uM after 48 hrs by SRB assay; assay type: functional; settings: HL-60, 48 h, read-out: GI
[5] = tested on: NCI-H23; test: Cytotoxicity against human NCI-H23 cells at 10 uM after 48 hrs by SRB assay; assay type: functional; settings: NCI-H23, 48 h, read-out: GI
[6] = tested on: SNB-75; test: Cytotoxicity against human SNB75 cells at 10 uM after 48 hrs by SRB assay; assay type: functional; settings: SNB-75, 48 h, read-out: GI
[7] = tested on: MDA-MB-435; test: Cytotoxicity against human MDA-MB-435 cells at 10 uM after 48 hrs by SRB assay; assay type: functional; settings: MDA-MB-435, 48 h, read-out: GI
[8] = tested on: SK-MEL-5; test: Cytotoxicity against human SK-MEL-5 cells at 10 uM after 48 hrs by SRB assay; assay type: functional; settings: SK-MEL-5, 48 h, read-out: GI
[9] = tested on: KM12; test: Cytotoxicity against human KM12 cells at 10 uM after 48 hrs by SRB assay; assay type: functional; settings: KM12, 48 h, read-out: GI
[10] = tested on: MDA-MB-468; test: Cytotoxicity against human MDA-MB-468 cells at 10 uM after 48 hrs by SRB assay; assay type: functional; settings: MDA-MB-468, 48 h, read-out: GI
[11] = tested on: COLO 205; test: Cytotoxicity against human COLO205 cells at 10 uM after 48 hrs by SRB assay; assay type: functional; settings: COLO 205, 48 h, read-out: GI
[12] = tested on: SW-620; test: Cytotoxicity against human SW620 cells at 10 uM after 48 hrs by SRB assay; assay type: functional; settings: SW-620, 48 h, read-out: GI
[13] = tested on: 786-0; test: Cytotoxicity against human 786-0 cells at 10 uM after 48 hrs by SRB assay; assay type: functional; settings: 786-0, 48 h, read-out: GI
[14] = tested on: ACHN; test: Cytotoxicity against human ACHN cells at 10 uM after 48 hrs by SRB assay; assay type: functional; settings: read-out: GI
[15] = tested on: SR; test: Cytotoxicity against human SR cells at 10 uM after 48 hrs by SRB assay; assay type: functional; settings: read-out: GI
[16] = tested on: T47D; test: Cytotoxicity against human T47D cells at 10 uM after 48 hrs by SRB assay; assay type: functional; settings: read-out: GI
[17] = tested on: IGROV-1; test: Cytotoxicity against human IGROV1 cells at 10 uM after 48 hrs by SRB assay; assay type: functional; settings: IGROV-1, 48 h, read-out: GI
[18] = Cytotoxicity against human EKVX cells at 10 uM after 48 hrs by SRB assay; assay type: functional; settings: read-out: GI
[19] = tested on: OVCAR-5; test: Cytotoxicity against human OVCAR5 cells at 10 uM after 48 hrs by SRB assay; assay type: functional; settings: OVCAR-5, 48 h, read-out: GI
[20] = tested on: UO-31; test: Cytotoxicity against human UO31 cells at 10 uM after 48 hrs by SRB assay; assay type: functional; settings: UO-31, 48 h, read-out: GI
[21] = tested on: NCI-H226; test: Cytotoxicity against human NCI-H226 cells at 10 uM after 48 hrs by SRB assay; assay type: functional; settings: NCI-H226, 48 h, read-out: GI
[22] = tested on: HCT-116; test: Cytotoxicity against human HCT116 cells at 10 uM after 48 hrs by SRB assay; assay type: functional; settings: HCT-116, 48 h, read-out: GI
[23] = tested on: HOP-62; test: Cytotoxicity against human HOP62 cells at 10 uM after 48 hrs by SRB assay; assay type: functional; settings: HOP-62, 48 h, read-out: GI
[24] = tested on: UACC-62; test: Cytotoxicity against human UACC62 cells at 10 uM after 48 hrs by SRB assay; assay type: functional; settings: UACC-62, 48 h, read-out: GI
[25] = n-Octanol-phosphate buffer partition coefficient, log P of the compound at pH 7.4 by shake flask method; assay type: physicochemical
[26] = tested on: LOX IMVI; test: Cytotoxicity against human LOXIMVI cells at 10 uM after 48 hrs by SRB assay; assay type: functional; settings: read-out: GI
[27] = tested on: HOP-92; test: Cytotoxicity against human HOP92 cells at 10 uM after 48 hrs by SRB assay; assay type: functional; settings: HOP-92, 48 h, read-out: GI
[28] = tested on: SK-OV-3; test: Cytotoxicity against human SKOV3 cells at 10 uM after 48 hrs by SRB assay; assay type: functional; settings: SK-OV-3, 48 h, read-out: GI
[29] = tested on: A498; test: Cytotoxicity against human A498 cells at 10 uM after 48 hrs by SRB assay; assay type: functional; settings: A498, 48 h, read-out: GI
[30] = tested on: OVCAR-8; test: Cytotoxicity against human OVCAR8 cells at 10 uM after 48 hrs by SRB assay; assay type: functional; settings: OVCAR-8, 48 h, read-out: GI
[31] = tested on: SN12C; test: Cytotoxicity against human SN12C cells at 10 uM after 48 hrs by SRB assay; assay type: functional; settings: read-out: GI
[32] = tested on: SK-MEL-28; test: Cytotoxicity against human SK-MEL-28 cells at 10 uM after 48 hrs by SRB assay; assay type: functional; settings: SK-MEL-28, 48 h, read-out: GI
[33] = tested on: HCC 2998; test: Cytotoxicity against human HCC2998 cells at 10 uM after 48 hrs by SRB assay; assay type: functional; settings: HCC 2998, 48 h, read-out: GI
[34] = tested on: SF-295; test: Cytotoxicity against human SF295 cells at 10 uM after 48 hrs by SRB assay; assay type: functional; settings: SF-295, 48 h, read-out: GI
[35] = tested on: NCI-H522; test: Cytotoxicity against human NCI-H522 cells at 10 uM after 48 hrs by SRB assay; assay type: functional; settings: NCI-H522, 48 h, read-out: GI
[36] = tested on: MOLT-4; test: Cytotoxicity against human MOLT4 cells at 10 uM after 48 hrs by SRB assay; assay type: functional; settings: MOLT-4, 48 h, read-out: GI
[37] = tested on: TK-10; test: Cytotoxicity against human TK10 cells at 10 uM after 48 hrs by SRB assay; assay type: functional; settings: TK-10, 48 h, read-out: GI
[38] = tested on: U-251; test: Cytotoxicity against human U251 cells at 10 uM after 48 hrs by SRB assay; assay type: functional; settings: U-251, 48 h, read-out: GI
[39] = tested on: NCI/ADR-RES; test: Cytotoxicity against human NCI/ADR-RES cells at 10 uM after 48 hrs by SRB assay; assay type: functional; settings: read-out: GI
[40] = tested on: RPMI-8226; test: Cytotoxicity against human RPMI8226 cells at 10 uM after 48 hrs by SRB assay; assay type: functional; settings: RPMI-8226, 48 h, read-out: GI
[41] = tested on: HT-29; test: Cytotoxicity against human HT-29 cells at 10 uM after 48 hrs by SRB assay; assay type: functional; settings: HT-29, 48 h, read-out: GI
[42] = tested on: MDA-MB-231; test: Cytotoxicity against human MDA-MB-231 cells at 10 uM after 48 hrs by SRB assay; assay type: functional; settings: MDA-MB-231, 48 h, read-out: GI

C=CCn1c(C)nc2cc(Nc3nc(N4CCOCC4)nc4ccccc34)ccc21
13.5%: inhibition of growth at 10 µM [4]
20.7%: inhibition of growth at 10 µM [29]
< 10%: inhibition of growth at 10 µM [2] | inhibition of growth at 10 µM [3] | inhibition of growth at 10 µM [5] | inhibition of growth at 10 µM [6] | inhibition of growth at 10 µM [7] | inhibition of growth at 10 µM [8] | inhibition of growth at 10 µM [9] | inhibition of growth at 10 µM [10] | inhibition of growth at 10 µM [11] | inhibition of growth at 10 µM [12] | inhibition of growth at 10 µM [13] | inhibition of growth at 10 µM [14] | inhibition of growth at 10 µM [15] | inhibition of growth at 10 µM [16] | inhibition of growth at 10 µM [17] | inhibition of growth at 10 µM [18] | inhibition of growth at 10 µM [19] | inhibition of growth at 10 µM [20] | inhibition of growth at 10 µM [21] | inhibition of growth at 10 µM [22] | inhibition of growth at 10 µM [23] | inhibition of growth at 10 µM [24] | inhibition of growth at 10 µM [26] | inhibition of growth at 10 µM [27] | inhibition of growth at 10 µM [28] | inhibition of growth at 10 µM [30] | inhibition of growth at 10 µM [31] | inhibition of growth at 10 µM [32] | inhibition of growth at 10 µM [33] | inhibition of growth at 10 µM [34] | inhibition of growth at 10 µM [35] | inhibition of growth at 10 µM [36] | inhibition of growth at 10 µM [37] | inhibition of growth at 10 µM [38] | inhibition of growth at 10 µM [39] | inhibition of growth at 10 µM [41] | inhibition of growth at 10 µM [42]
13.4%: inhibition of growth at 10 µM [40]
11.9%: inhibition of growth at 10 µM [1]
2.49: logD [25]
